We go through one molecule from US20100197642A1, “SLOW RELEASE MISOPROSTOL FOR OBSTETRIC AND/OR GYNAECOLOGICAL APPLICATIONS” (priority 2007, published 2010).

The conditions of data set [1]: cited from earlier work.
Data set [2] is described as follows: Pharmacokinetic study of misoprostol acid (MPA) plasma levels after SR oral, sublingual or vaginal misoprostol. Format: in vivo, women. The note with it: 400 μg.
Description: A study was performed with healthy women ≧18 years with a viable intrauterine pregnancy of up to 12 weeks (47-83 days) of gestation who had requested termination of pregnancy by vacuum aspiration.
After giving their informed consent, eligible women were allocated randomly to the three treatment groups using computer generated random tables and numbered, sealed, opaque envelopes opened consecutively. […] The SR misoprostol tablets were swallowed with a small amount of water. Women allocated to vaginal misoprostol treatment inserted the tablets intravaginally themselves.
The women were admitted to hospital in the morning after fasting overnight.
The blood samples were immediately cooled in a refrigerator at +6° C. for 30-60 minutes and thereafter centrifuged in a cooled centrifuge for 10 minutes at 3000 rpm. The plasma was then drawn from the blood samples and stored at below −20° C. for further analyses. […]
AUC was calculated according to the trapezoidal method, by dividing the area under the curve into trapezium segments according to the time intervals of blood sampling. […] The AUC720 was calculated by summation of the trapezium segments. Pulse, blood pressure and temperature were measured repeatedly and side-effects such as nausea, abdominal pain, skin rash or diarrhoea were recorded, as well as any analgesics given. […]

For the molecule `CCCCC(C)(O)C/C=C/[C@H]1[C@H](O)CC(=O)[C@@H]1CCCCCCC(=O)OC` (mixture of isomers) [misoprostol, (±) methyl 7-[3-(α-hydroxy-2-β-(4(RS)-4-hydroxy-4-methyl-trans-1-octen-1-yl)-oxycyclopent-1α-yl]heptanoate], in data set [1] (400 μg oral misoprostol), the “time at which plasma misoprostol level peaks” value is “about 30 minutes”. Besides, in data set [1] (vaginal administration), the “time after administration with detectable levels of MPA remaining” value was 6 h and the “time to maximum plasma level” value was 70 to 80 min. Further, the “cumulative AUC of MPA over time (FIG. 2)” value in data set [2] (sublingual group) was “did not continue to rise after 6 hours”. In data set [2] (vaginal group), the “cumulative AUC of MPA over time (FIG. 2)” value was “did not continue to rise after 6 hours”.
